Experimental findings from patent US8217042B2, “Pyridopyrazines and their use as modulators of kinases” (Zentaris GmbH, priority 2005, dated 2012) are described below.

One may read the EC50 as the midpoint of the concentration-response curve. Higher therefore signals a less potent agent. In general, melting point refers to the temperature, or range, at which the solid turns liquid. Broadly, the IC50 is the concentration needed to halve the response being measured. As a reminder, the inhibition is how much of the control response was suppressed. A lower inhibition goes with a weak effect.

The test system of one data set is MDA-MB468. The data set is described as follows: XTT assay, anti-proliferative action, MDA-MB468. The following applies: Homo sapiens, MDA-MB-468, 45 h, MDA-MB468 cells, 45 h incubation. Format: cell-based. As to the method:
The principle of this test is based on the intracellular reduction of the tetrazolium dye XTT (sodium 3′-[1-(phenylaminocarbonyl)-3,4-tetrazolium]bis(4-methoxy-6-nitro)benzenenesulphonic acid, Sigma) to a formazan dye by mitochondrial dehydrogenases.
The dye is formed only by metabolically active cells; its photometrically measurable intensity is a quantitative indicator for the presence of living cells. The reduction in the dye formation as a result of incubation of the cells with substances serves as a parameter for the anti-proliferative action.
The tumour cell lines (ATCC) were seeded in 96-well microtitre plates in a defined cell count (5000 cells/well for BxPC3 and Hct116; 10 000 cells/well for MDA MB468), and then incubated overnight in an incubator at 37° C., 5% CO2 and 95% air humidity. The test substances were made up as stock solutions (10 mM) in DMSO. […] The cell plates were then incubated for 45 h in an incubator at 37° C., 5% CO2 and 95% air humidity.
For the detection reaction, the XTT substrate was admixed with PMS (N-methyldibenzopyrazine methylsulphate, Sigma) and added to the cells, so as to result in a final concentration of 325 μg of XTT/ml and 2.5 μg PMS/ml. The mixture was then incubated for 3 h at 37° C., 95% air humidity. Subsequently the formazan salt formed by cellular dehydrogenases was quantified at an absorption of 490 nm.
The evaluation of the % inhibition values was done by means of the following formula from the values for the optical densities measured in each case at 490 nm:
The controls were determined 8 times each, the substance samples twice each. 0% control contained no cells; the 100% control contained no test substance. The EC50 values were determined with GraphPadPrism.

The subject of another data set is Jnk1 + Jnk2. The data set can be described thus: Cell-free kinase assay (ALPHA technology), Jnk1 + Jnk2. Format: biochemical. The following applies: at 10 μM or 100 μM* ATP, recombinant human kinases.
In a further data set the target is T1, p38alpha (Homo sapiens, UniProt Q16539).
T1 construct: in some cases as full-length kinases, in some cases as truncated fragments
T1 sequence (Q16539 whole entry, the tested form may be a part): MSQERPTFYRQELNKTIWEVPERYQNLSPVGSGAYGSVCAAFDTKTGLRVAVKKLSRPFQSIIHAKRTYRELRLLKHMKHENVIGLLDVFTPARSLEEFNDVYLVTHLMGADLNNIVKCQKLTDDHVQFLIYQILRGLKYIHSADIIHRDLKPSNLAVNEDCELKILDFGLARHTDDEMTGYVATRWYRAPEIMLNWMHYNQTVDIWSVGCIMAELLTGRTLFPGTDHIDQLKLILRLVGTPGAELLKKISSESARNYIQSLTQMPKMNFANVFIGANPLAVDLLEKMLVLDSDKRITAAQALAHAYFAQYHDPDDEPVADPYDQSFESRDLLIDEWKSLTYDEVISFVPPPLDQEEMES
The data set can be described thus: Cell-free kinase assay (ALPHA technology), p38alpha. In kind it is biochemical. The following applies: at 10 μM or 100 μM* ATP, recombinant human kinase. As to the method: The inhibitory effect of the inventive compounds was tested on various human serine/threonine kinases, tyrosine kinases and lipid kinases in enzymatic assays. Recombinant human kinases, for example Erk2, PI3Kalpha, -beta, -gamma, -delta, p38alpha, p38gamma, Jnk1, Jnk2 and others were used, in some cases as full-length kinases, in some cases as truncated fragments—but at least consisting of the functional kinase domains. The commercial kinase proteins (Proqinase, Upstate) were used as recombinant fusion proteins with GST (glutathione S-transferase) tag or His tag. Depending on the substrate type, the different kinase reactions were quantified by means of suitable ALPHA™ beads (PerkinElmer). […]
The fluorescence was detected the next morning in a Fusion™ alpha instrument (Perkin Elmer).
The calculation of % inhibition values per substance concentration was done by means of the following formula from the raw data determined in the Fusion™ alpha:
The controls were each determined 8 times, the substance samples each twice. 0% control contained neither any ATP nor any substrate; the 100% control contained no test substance. The IC50 values were determined with GraphPadPrism.

The subject of a further data set is PI3K →pAkt. The data set is described as follows: Cellular substrate phosphorylation (Western blotting), PI3K substrate Akt. Format: cell-based. The conditions noted are these: 5 h, tumour cell line. How it is done:
(§1) This method enables a statement of whether the kinase modulator investigated achieves the desired effect in a cellular context too, i.e., in this case, a substrate protein downstream of the target kinase is examined for its phosphorylation status. To this end, the cells incubated with substance are lysed and the overall protein is separated on a reducing polyacrylamide gel. Subsequently, the proteins are transferred by means of Western blotting to a PVDF membrane and the substrate bands sought are made visible with specific antibodies and a suitable detection method. The substrate proteins downstream of the target kinases are detected simultaneously with an anti-phospho antibody which is specific in each case and simultaneously a total antibody which recognizes the substrate total protein. The duplex technology of the ODYSSEY imager (LiCOR) enables this simultaneous measurement. The intensity of the total substrate bands is employed to normalize and quantify the phosphorylation inhibition or activation.
(§2) Suitable tumour cell lines (e.g. BxPC3, Hct116 or MDA MB468) were seeded into 6-well microtitre plates in a defined cell count (e.g. 350 000 cells/well for BxPC3 and Hct116) in the particular standard complete media and then incubated overnight in an incubator at 37° C., 5% CO2 and 95% air humidity. The cells were then incubated further for a further 24 h under reduced-serum conditions, i.e. in the particular medium except at only 0.25% serum. The test substances were made up as stock solutions (10 mM) in DMSO and incubated with the cells at final concentrations of 5, 15.8 and 50 μM for 5 h. This was followed by cell lysis in 25 mM Tris, 150 mM NaCl, 10 mM sodium pyrophosphate, 2 mM EGTA, 25 mM beta-glycerophosphate, 25 mM NaF, 10% glycerol, 0.75% NP-40, 100 μM NaVO4 buffer. After protein quantification by means of BCA (bicinchonic acid protein assay kit, Sigma) assay, amounts of protein of about 20 μg per track were separated on a Lammli polyacrylamide gel and then transferred onto a PVDF membrane (Millipore) by means of semi-dry Western blotting at 0.8 mA/cm^2 for 1 h. This was followed by prehybridization of the membrane for 1 hour in I-block reagent (Applied Biosystems) and overnight incubation with the specific antibodies. To determine the Erk and PI3K inhibition, the next substrates Rsk1 downstream were detected with the total antibody (Rsk #sc-231g C-21, Santa Cruz) and the phospho antibody (Phospho-p90RSK (S380) #9341, NEB Cell Signalling) and Akt with the total antibody (Akt1 #sc-20, Santa Cruz) and the phospho antibody (Phospho-Akt (Ser 473) #9271, NEB Cell Signaling). After the membrane had been washed, the secondary antibodies were incubated with anti-rabbit IR Dye 800 (#611-732-127, Rockland) for the phospho antibody and anti-goat Alexa Fluor 680 (#A-21081, […]) for the total protein antibody. After incubation for 30 min at room temperature in the dark, the hybridization of the detection antibody was detected on the membrane by scanning in an ODYSSEY imager (LiCOR).
A general note: Immunoblotting shows a protein as a band on a membrane.

Another data set has as its system Erk →pRsk. The data set is described as follows: Cellular substrate phosphorylation (Western blotting), Erk substrate Rsk1. Format: cell-based. The conditions noted are these: 5 h, tumour cell line. How it is done: as §1, §2

On to `CCNC(=O)Nc1ccc2ncc(Nc3ccc(C)c(NS(C)(=O)=O)c3)nc2n1` [Compound 49, N-{5-[6-(3-Ethylurea)pyrido[2,3-b]pyrazin-3-ylamino]-2-methylphenyl}methanesulphonamide], for which the melting point lay within 247 to 250 °C. The EC50 with MDA-MB468 was 16 µM. Also, the IC50 in the data set with Jnk1 + Jnk2 is greater than 31.6 µM. Moreover, the IC50 at p38alpha is 4 µM. This molecule showed an inhibition at 50 µM in the data set on PI3K →pAkt of 90%. Also, the inhibition at 50 µM in the data set on Erk →pRsk is 0%.
